Source: article PMC6383986, “Fragment-Based Covalent Ligand Screening Enables Rapid Discovery of Inhibitors for the RBR E3 Ubiquitin Ligase HOIP” (Journal of the American Chemical Society, 2019)
“Also recorded” adds a separate entry of the source.

Experiments:
HOIP RBR C885S = target: T1, HOIP RBR C885S (Homo sapiens, UniProt Q96EP0, C885S); assay: Protein LC-MS labeling of active-site mutant; type: binding; conditions: 200 μM compound (100-fold excess), 2 μM protein, 4 h
T1 construct: 697-1072; made in house; host or cells: E. coli BL21-GOLD(DE3)
Description: negative control and compound solutions data points were acquired after 0.5, 4, and 24 h […]
Protocol as described above, using the HOIP RBR C885S mutant (155 µM stock solution in 50 mM HEPES, 150 mM NaCl, 1 mM DTT, pH 7.5) and 50 mM HEPES, 150 mM NaCl, pH 7.5 buffer.
The stock solution at 4 µM (25 µL per sample, final concentration 2 µM, 87 µg/mL), was mixed with buffer (24.5 µL) and compound (5) (0.5 µL of 2, and 20 mM stock solutions in DMSO, giving a final concentration of 20 and 200 µM respectively, and 1% DMSO). Data points were acquired after 0.5 and 4 h incubation.
The HOIP RBR domain wild type was diluted with 50 mM HEPES, 150 mM NaCl, pH 7.5 buffer to afford a new stock solution at 2.02 µM, which was aliquoted into 10 × 297 µL. […]
thawed individually and analyzed by protein mass spectrometry as described above. The total ion counts (TICs) detected for unlabelled HOIP and labelled HOIP-(5) conjugate within a peak elution range of 10 seconds were used to calculate the ratio of labelled HOIP RBR over total HOIP RBR content for each sample. The averaged data from 3 independent experiments were analyzed according to a two-step model of reversible ligand binding followed by irreversible covalent modification (Supplementary Figure S2A),11 fitted to a single exponential equation (equation 1, Supplementary Figure S2B) using GraFit (v.7). […]

[1] = target: T2, 3 × FLAG-tagged HOIP RBR domain in HEK293T cells (Homo sapiens, UniProt Q96EP0); assay: In-cell labeling, FLAG-IP, tryptic digest and LC-MS/MS; type: cell-based; conditions: 30 μM, 8 h
T2 construct: expressed in transfected cells; host or cells: HEK293T, transient, modified pcDNA3.1(+)
Description: Transfection and compound treatment
At approximately 40% confluency, as judged by visual inspection by microscope, cells were transfected by mixing Optimem (Gibco) with the relevant pcDNA3.1 construct (3 µg; 3×FLAG HOIP RBR, 3×FLAG HOIP RBR C885A or mock) and FuGENE transfection reagent (9 µL, vortexed prior to use; Promega) respectively. The solutions were mixed thoroughly and incubated at room temperature for 15 min, then added dropwise and the media was swirled gently to ensure homogenous mixing. The cells were incubated at 37 °C (Binder) for 48 h. Fresh DMEM media supplemented with 1% v/v FBS (Biosera) and 1% v/v L-glutamine/penicillin/streptomycin (Sigma-Aldrich) was aliquoted into 15 mL Falcon tubes (typically 8 mL/tube). […]
The lysates were clarified by centrifugation (Heraeus Fresco 17) at 17 000 × g, 4 °C for 20 min and the pellet discarded. The protein concentration was determined using the BCA assay (see […]
The protein concentrations of the clarified lysates were normalized with reaction buffer (50 mM Tris-HCl, pH 7.5, 1.5 mM MgCl2, 150 mM NaCl, 1 mM Na3VO4, complete protease inhibitor) to 1.0 mg/mL (final volume 400 µL, and <0.1% IGEPAL-CA630). […] One set of beads were denatured in 2× LDS loading buffer and analyzed by SDS PAGE and Western blot (FLAG antibody, Supplementary Figure S12) as described in […]

T1 sequence (Q96EP0 697-1072 C885S): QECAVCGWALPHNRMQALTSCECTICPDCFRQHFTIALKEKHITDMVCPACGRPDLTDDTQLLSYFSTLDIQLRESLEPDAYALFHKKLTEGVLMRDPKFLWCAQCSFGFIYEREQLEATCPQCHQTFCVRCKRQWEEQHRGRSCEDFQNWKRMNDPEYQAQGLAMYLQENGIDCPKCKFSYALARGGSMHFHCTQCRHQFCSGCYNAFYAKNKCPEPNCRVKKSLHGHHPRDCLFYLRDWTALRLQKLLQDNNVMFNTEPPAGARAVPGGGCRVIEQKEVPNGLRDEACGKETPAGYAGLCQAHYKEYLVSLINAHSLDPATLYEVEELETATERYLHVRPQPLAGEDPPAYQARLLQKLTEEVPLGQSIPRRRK
T2 sequence (Q96EP0 697-1072): as the sequence (Q96EP0 697-1072 C885S) above, with S189C counted along it

Row | SMILES | labeling of HOIP RBR C885S (HOIP RBR C885S) | in-cell labeling of HOIP RBR at C885 [1]
1 | COC(=O)/C=C/CNC(=O)c1cc2c([nH]c1=O)CCC2 [Compound 5] | did not result in protein labeling; also recorded: not labeled | 
2 | COC(=O)/C=C/CNC(=O)c1cc2c([nH]c1=O)CCCC2 [Compound 11a] |  | significantly labeled; also recorded: significant labeling
